{
  "source": "patent US20060078504A1",
  "about": "“Sustanined-release pharmaceutical composition for lung administration” (priority 2003, published 2006)",
  "test": "Test Example 1: serum theophylline pharmacokinetics after intratracheal administration of solutions A to D to rats",
  "assay_type": "in vivo, Wistar male rats",
  "conditions": "solution A, intratracheal vs intravenous (femoral vein), rat, FIG. 1",
  "protocol": "Wistar male rats (body weight about 220 g) fasted for about 18 hours were used as experimental animals. […] That is, the rats were anesthetized with pentobarbital (about 32 mg/kg) and secured on their back on animal boards, the tracheas were exposed through a longitudinal incision. A section of polyethylene tube (i.d. 1.5 mm, o.d. 2.3 mm) 2.5 cm in length was inserted through the tracheal incision for a distance of 0.6 cm between the forth and fifth tracheal rings caudal to the thyroid cartilage. Each of one hundred microliters of drug solutions A-D was drawn into a glass microsyringe, and then rat was maintained at an angle of 80°. The tip of syringe was inserted through the polyethylene tube to 1-2 mm above the bifurcation of the trachea. Then, the solution was injected over a period of 1-2 sec. About 45 sec after the administration, the rat was positioned at an angle of 10° and the incision in the skin was then closed with suture.\nThe theophylline concentrations in the obtained serum were measured by HPLC.",
  "data": [
    {"smiles": "Cn1c(=O)c2[nH]cnc2n(C)c1=O", "note": "[theophylline]", "values": [
      {"measurement": "pulmonary absorption compared with intravenous administration (in words)", "value": "as quick and effective as achieved by intravenous administration"}
    ]}
  ]
}
